The supplement of paper PMC10307832

What was measured:
Test in all cases: relative viability (nuclei count vs DMSO), 5 days (fraction); higher = more cells survive
XMD14-99 + Vorinostat = compound: CN1CCN(CC1)C2=CC(=C(C=C2)NC3=NC(=C(S3)C(=O)C4=C(C=CC=C4Cl)Cl)N)OC [XMD14-99] + O=C(CCCCCCC(=O)Nc1ccccc1)NO [Vorinostat] (partner 1 µM)
How it was run: (§1)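 Relative viability was taken as the ratio of nuclei in treated wells to nuclei in vehicle wells. Lung cancer cell lines in 1536-well plates received compounds by pin tool one day after seeding, either one drug alone or a fixed anchor-drug dose plus five library-drug doses (not always all listed) in √10 steps. Nuclei were counted on 4× images after 5 days of treatment, and values are medians of duplicate plates.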

AZD1208 + Navitoclax = compound: N[C@@H]1CCCN(c2c(/C=C3\SC(=O)NC3=O)cccc2-c2ccccc2)C1 [AZD1208] + CC1(C)CCC(c2ccc(Cl)cc2)=C(CN2CCN(c3ccc(C(=O)NS(=O)(=O)c4ccc(N[C@H](CCN5CCOCC5)CSc5ccccc5)c(S(=O)(=O)C(F)(F)F)c4)cc3)CC2)C1 [Navitoclax] (partner 0.5 µM)
How it was run: as §1

XMD14-99 + Foretinib = compound: CN1CCN(CC1)C2=CC(=C(C=C2)NC3=NC(=C(S3)C(=O)C4=C(C=CC=C4Cl)Cl)N)OC [XMD14-99] + COc1cc2c(Oc3ccc(NC(=O)C4(C(=O)Nc5ccc(F)cc5)CC4)cc3F)ccnc2cc1OCCCN1CCOCC1 [Foretinib] (partner 0.25 µM)
How it was run: as §1

AZD1208 + Trametinib = compound: N[C@@H]1CCCN(c2c(/C=C3\SC(=O)NC3=O)cccc2-c2ccccc2)C1 [AZD1208] + CC(=O)Nc1cccc(-n2c(=O)n(C3CC3)c(=O)c3c(Nc4ccc(I)cc4F)n(C)c(=O)c(C)c32)c1 [Trametinib] (partner 0.02 µM)
How it was run: as §1

| Cell Line | relative viability (XMD14-99 + Vorinostat; first compound 0.08 µM) | relative viability (XMD14-99 + Vorinostat; first compound 0.8 µM) | relative viability (XMD14-99 + Vorinostat; first compound 2.53 µM) | relative viability (XMD14-99 + Vorinostat; first compound 8 µM) | relative viability (AZD1208 + Navitoclax; first compound 0.08 µM) | relative viability (AZD1208 + Navitoclax; first compound 0.253 µM) | relative viability (AZD1208 + Navitoclax; first compound 0.8 µM) | relative viability (AZD1208 + Navitoclax; first compound 2.53 µM) | relative viability (AZD1208 + Navitoclax; first compound 8 µM) | relative viability (XMD14-99 + Foretinib; first compound 0.08 µM) | relative viability (XMD14-99 + Foretinib; first compound 0.8 µM) | relative viability (XMD14-99 + Foretinib; first compound 2.53 µM) | relative viability (XMD14-99 + Foretinib; first compound 8 µM) | relative viability (AZD1208 + Trametinib; first compound 0.08 µM) | relative viability (AZD1208 + Trametinib; first compound 0.253 µM) | relative viability (AZD1208 + Trametinib; first compound 0.8 µM) | relative viability (AZD1208 + Trametinib; first compound 2.53 µM) | relative viability (AZD1208 + Trametinib; first compound 8 µM) |
| --- | --- | --- | --- | --- | --- | --- | --- | --- | --- | --- | --- | --- | --- | --- | --- | --- | --- | --- |
| 201T | 0.962 | 0.93 | 0.948 | 0.815 | 1.24 | 1.23 | 1.25 | 1.24 | 1.31 | 1.05 | 1.1 | 1.01 | 0.956 | 0.749 | 0.716 | 0.721 | 0.725 | 0.732 |
| A549 |  |  |  |  | 1.24 | 1.16 | 1.12 | 1.18 | 1.1 | 0.899 | 0.916 | 0.787 | 0.693 |  |  |  |  |  |
| A-427 | 0.882 | 0.832 | 0.689 | 0.612 | 0.936 | 0.95 | 0.892 | 0.876 | 0.863 | 1.04 | 0.988 | 0.814 | 0.712 | 0.622 | 0.71 | 0.6 | 0.619 | 0.537 |
| ABC-1 | 1.13 | 0.996 | 1.01 | 0.646 |  |  |  |  |  | 1.14 | 0.883 | 0.957 | 0.937 |  |  |  |  |  |
| BEN | 0.591 | 0.547 | 0.595 | 0.522 | 0.0677 | 0.0668 | 0.0589 | 0.0576 | 0.125 | 0.662 | 0.695 | 0.705 | 0.678 | 0.843 | 0.754 | 0.636 | 0.768 | 0.576 |
| CAL-12T | 0.685 | 0.894 | 0.627 | 0.613 | 1.28 | 1.39 | 1.08 | 1.28 | 0.956 | 1.09 | 1.06 | 0.876 | 1.02 | 0.377 | 0.331 | 0.339 | 0.332 | 0.251 |
| COR-L23 | 0.409 | 0.415 | 0.304 | 0.181 | 0.948 | 1.07 | 0.931 | 1.05 | 0.816 | 0.901 | 0.962 | 0.812 | 0.572 | 0.511 | 0.581 | 0.525 | 0.57 | 0.301 |
| COR-L 105 | 0.833 | 0.944 | 0.662 | 0.663 | 0.679 | 0.745 | 0.555 | 1.13 | 0.682 | 1.06 | 1.25 | 0.991 | 0.734 | 0.435 | 0.366 | 0.408 | 0.625 | 0.378 |
| Calu-6 |  |  |  |  | 0.737 | 0.916 | 0.906 | 0.833 | 0.822 | 0.897 | 0.905 | 0.843 | 0.593 |  |  |  |  |  |
| ChaGo-K-1 | 0.741 | 0.73 | 0.68 | 0.719 | 1.16 | 1.05 | 1.09 | 0.834 | 0.785 | 0.82 | 0.939 | 0.88 | 0.913 | 0.884 | 0.905 | 0.78 | 0.88 | 0.806 |
| EBC-1 |  |  |  |  | 0.317 | 0.326 | 0.297 | 0.334 | 0.298 | 0.113 | 0.11 | 0.112 | 0.0979 |  |  |  |  |  |
| EKVX | 0.701 | 0.714 | 0.655 | 0.493 | 0.931 | 0.995 | 0.754 | 0.933 | 0.944 | 0.768 | 0.888 | 0.876 | 0.662 | 0.35 | 0.387 | 0.306 | 0.309 | 0.45 |
| EMC-BAC-2 | 0.493 | 0.585 | 0.447 | 0.199 | 1.17 | 1.39 | 1.14 | 1.17 | 1.07 | 1.05 | 0.978 | 0.854 | 0.859 | 0.852 | 0.83 | 0.777 | 0.806 | 0.702 |
| EPLC-272H | 0.476 | 0.399 | 0.401 | 0.419 | 1.08 | 1.24 | 1.08 | 1.04 | 0.897 | 0.748 | 0.764 | 0.684 | 0.444 | 0.312 | 0.268 | 0.279 | 0.254 | 0.315 |
| H3255 | 0.756 | 0.74 | 0.717 | 0.591 | 0.511 | 0.546 | 0.455 | 0.462 | 0.472 | 0.956 | 0.9 | 0.737 | 0.709 | 0.537 | 0.616 | 0.636 | 0.624 | 0.519 |
| HARA | 0.537 | 0.499 | 0.369 | 0.397 | 1.13 | 1.16 | 1.2 | 1.03 | 1.15 | 0.791 | 0.793 | 0.748 | 0.757 | 0.551 | 0.743 | 0.761 | 0.542 | 0.35 |
| HCC-15 | 0.839 | 0.825 | 0.728 | 0.587 | 0.632 | 0.725 | 0.55 | 0.642 | 0.612 | 1.01 | 1.01 | 0.9 | 0.693 | 0.381 | 0.338 | 0.326 | 0.312 | 0.296 |
| HCC-44 | 1.12 | 1.1 | 1.13 | 1.04 | 0.91 | 1.07 | 0.94 | 1.04 | 0.899 |  |  |  |  | 1.1 | 1.12 | 1.02 | 1.1 | 1.05 |
| HCC-78 | 0.404 | 0.408 | 0.369 | 0.382 | 0.951 | 0.752 | 0.672 | 0.685 | 0.709 | 0.506 | 0.489 | 0.566 | 0.53 | 0.689 | 0.806 | 0.702 | 0.834 | 0.919 |
| HCC-366 | 0.42 | 0.324 | 0.296 | 0.218 | 1.1 | 0.965 | 1.02 | 1.05 | 0.927 | 0.912 | 0.943 | 0.96 | 0.918 | 0.328 | 0.327 | 0.297 | 0.286 | 0.221 |
